Source: US20090240049A1, “Purification of air sensitive steroids” (priority 2008, published 2009)

Test: Stability of Budesonide on storage, 21-aldehyde and Budesonide content by HPLC
Format: physicochemical
Conditions: for Budenoside HPLC Area % / 21 Aldehyde HPLC Area %: double plastic containers
Description: The amount of air-sensitive steroid and/or its 21 aldehyde impurity were determined using HPLC. Common HPLC methods for these steroids and their 21-aldehyde impurities may be found in various monographs see for example for Budesonide and its 21-aldehyde impurity a HPLC method is reported in USP31-NF26, page 1565 (detection limit 0.02%), for Fluocinolone acetonide a HPLC method in European Pharmacopoeia (EP) 6.0, page 1915, and for Methylprednisolone a HPLC method in European Pharmacopoeia (EP) 6.0, page 2393.
Budenoside from three production lots prepared in stainless steel reactors was compared to a lot of Budenoside produced in such a reactor and purified with cysteine according to example 5. All samples were stored in double plastic containers. The samples that were not treated with cysteine were kept at a temperature of 25±2° C. and relative humidity of 60%. The sample treated with cysteine was stored at a temperature that varied from about 0° C. to about 40° C. with no humidity control. As is shown in the table below the amount of the 21-aldehyde impurity in the Budenoside purified according to example 5 is less than 0.07% even after 6 years of storage. The aldehyde content of all samples was measured by HPLC.

[1] = production lot 1 of 3 (c1-c2), not treated with cysteine, 25±2° C., 60% relative humidity, 2 years
[2] = production lot 1 of 3 (c1-c2), not treated with cysteine, 25±2° C., 60% relative humidity, 5 years
[3] = production lot 2 of 3 (c3-c4), not treated with cysteine, 25±2° C., 60% relative humidity, 2 years
[4] = production lot 2 of 3 (c3-c4), not treated with cysteine, 25±2° C., 60% relative humidity, 5 years
[5] = production lot 3 of 3 (c5-c6), not treated with cysteine, 25±2° C., 60% relative humidity, 2 years
[6] = production lot 3 of 3 (c5-c6), not treated with cysteine, 25±2° C., 60% relative humidity, 5 years
[7] = lot purified with cysteine, stored at about 0° C. to about 40° C., no humidity control, 6 years

## CCCC1O[C@@H]2C[C@H]3[C@@H]4CCC5=CC(=O)C=C[C@]5(C)[C@H]4[C@@H](O)C[C@]3(C)[C@]2(C(=O)CO)O1 (stereo partly shown) [Budenoside, Budesonide]
Production lot 1 of 3 (c1-c2), not treated with cysteine, 25±2° C., 60% relative humidity, 0 years
  Budenoside HPLC Area %: 99.0 HPLC Area %
Production lot 1 of 3 (c1-c2), not treated with cysteine, 25±2° C., 60% relative humidity, 1 year
  Budenoside HPLC Area %: 98.8 HPLC Area %
[1]
  21 Aldehyde HPLC Area %: 0.1 HPLC Area %
  Budenoside HPLC Area %: 98.7 HPLC Area %
[2]
  21 Aldehyde HPLC Area %: 0.2 HPLC Area %
  Budenoside HPLC Area %: 98.4 HPLC Area %
Production lot 2 of 3 (c3-c4), not treated with cysteine, 25±2° C., 60% relative humidity, 0 years
  Budenoside HPLC Area %: 99.4 HPLC Area %
Production lot 2 of 3 (c3-c4), not treated with cysteine, 25±2° C., 60% relative humidity, 1 year
  Budenoside HPLC Area %: 98.9 HPLC Area %
[3]
  21 Aldehyde HPLC Area %: 0.6 HPLC Area %
  Budenoside HPLC Area %: 98.5 HPLC Area %
[4]
  21 Aldehyde HPLC Area %: 0.9 HPLC Area %
  Budenoside HPLC Area %: 97.8 HPLC Area %
Production lot 3 of 3 (c5-c6), not treated with cysteine, 25±2° C., 60% relative humidity, 0 years
  Budenoside HPLC Area %: 99.2 HPLC Area %
Production lot 3 of 3 (c5-c6), not treated with cysteine, 25±2° C., 60% relative humidity, 1 year
  Budenoside HPLC Area %: 99.0 HPLC Area %
[5]
  21 Aldehyde HPLC Area %: <0.1 HPLC Area %
  Budenoside HPLC Area %: 99.1 HPLC Area %
[6]
  21 Aldehyde HPLC Area %: <0.2 HPLC Area %
  Budenoside HPLC Area %: 98.2 HPLC Area %

## CCCC1O[C@@H]2C[C@H]3[C@@H]4CCC5=CC(=O)C=C[C@]5(C)[C@H]4[C@@H](O)C[C@]3(C)[C@]2(C(=O)CO)O1 (stereo partly shown) [Budesonide]
After 6 years of storage at about 0° C. to about 40° C., no humidity control
  amount of the 21-aldehyde impurity: less than 0.07%
Lot purified with cysteine, stored at about 0° C. to about 40° C., no humidity control, 0 years
  Budenoside HPLC Area %: 99.76 HPLC Area %
[7]
  21 Aldehyde HPLC Area %: 0.02 HPLC Area %
  Budenoside HPLC Area %: 99.61 HPLC Area %
